Data: publication PMC5627009, “Cyclotides Isolated from an Ipecac Root Extract Antagonize the Corticotropin Releasing Factor Type 1 Receptor” (Frontiers in Pharmacology, 2017)

What was measured:
human CRF1R [1] = biological target: T1, human CRF1R (Homo sapiens, UniProt P34998); assay: cAMP accumulation assay at CRF1R (LANCE Ultra cAMP); assay type: cell-based
T1 construct: expressed in transfected cells; host or cells: HEK293
T1 sequence (P34998 24-415): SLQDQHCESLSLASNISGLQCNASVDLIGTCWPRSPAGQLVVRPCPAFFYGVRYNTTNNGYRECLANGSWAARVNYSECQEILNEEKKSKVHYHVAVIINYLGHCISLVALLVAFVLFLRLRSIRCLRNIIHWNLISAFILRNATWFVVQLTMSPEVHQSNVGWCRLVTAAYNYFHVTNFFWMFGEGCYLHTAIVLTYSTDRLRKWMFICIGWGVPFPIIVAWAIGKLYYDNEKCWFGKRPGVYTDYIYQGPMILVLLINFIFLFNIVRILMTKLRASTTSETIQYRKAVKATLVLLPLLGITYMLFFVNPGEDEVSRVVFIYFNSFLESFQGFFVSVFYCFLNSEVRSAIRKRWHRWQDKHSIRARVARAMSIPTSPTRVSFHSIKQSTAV
Description: (§1) Receptor-mediated cAMP accumulation was measured in HEK293 cells transiently transfected with the human CRF1R (with C-terminal GFP tag) using the LANCE® Ultra cAMP Detection kit (PerkinElmer, Waltham, MA, United States). To prepare for experiments, HEK293 cells were grown to confluence in a 6-well plate, followed by transfection with 2.5 μg of plasmid DNA per well using the Lipofectamine® 2000 transfection reagent (Thermo Fisher Scientific). After 4–6 h post-transfection, the cell media was replaced, followed by dissociation of cells via trituration and division of the cell suspension to avoid overcrowding over the subsequent 48 h of incubation at 37°C and 5% CO2. On the day of assay, cells were dissociated with phosphate buffered saline- (PBS-)EDTA solution (137 mM NaCl, 2.7 mM KCl, 10 mM Na2HPO4, 1.8 mM KH2PO4, 1 mM EDTA) and re-suspended in stimulation buffer (1.26 mM CaCl2, 0.49 mM MgCl2, 0.41 mM MgSO4, 5.33 mM KCl, 0.44 mM KH2PO4, 4.17 mM NaHCO3, 138 mM NaCl, 0.34 mM Na2HPO4, 5.56 mM D-glucose, 5 mM HEPES, 0.5 mM IBMX, 0.1% BSA; pH 7.4). Stimulation of cAMP accumulation via the human CRF1R and the human V2R used 500 cells and 300 cells (expressing these receptors) per well, respectively, in 384-well white Cellstar® plates (Greiner Bio-One, Kremsmuenster, Austria). Cells were incubated with the respective cognate receptor agonist peptides, in the absence and presence of cyclotide, for 30 min at 23°C in a final volume of 10 μL of stimulation buffer. Termination of cAMP accumulation was performed with the addition of 5 μL of Eu-cAMP tracer solution and 5 μL of ULight-anti-cAMP antibody solution, each prepared in detection buffer, followed by incubation of the plate for 1 h at 23°C with the lid on. After incubation, the plate was read in a Flexstation 3 plate reader (Molecular Devices, Sunnyvale, CA, United States).
Data from cellular assays were analyzed using GraphPad Prism 7.01 (GraphPad Software, San Diego, CA, United States). Concentration-response curve data were fitted to the three-parameter logistic equation to derive estimates of potency (LogIC50, luciferase; LogEC50, cAMP) and efficacy (Emax), relative to the maximal agonist control response. CRF LogEC50 values in the absence and presence of caripe 8 were statistically compared via extra sum-of-squares F test analysis. Other statistical analyses were performed as appropriate using one-way analysis of variance (ANOVA) with Bonferroni’s post-test, and significance taken as p < 0.05.

human CRF1R [2] = biological target: T1, human CRF1R; assay: CRE luciferase reporter gene assay (CRF1R antagonism/agonism); assay type: cell-based; settings: fraction F, relative to the other identified cyclotides
Description: The ipecac extract was tested for its modulating effect on CRF1R signaling using a cell-based luciferase reporter assay. HEK293 cells transiently transfected with an C-terminally GFP-tagged human CRF1R and a luciferase-coupled cAMP response element (CRE) were stimulated with varying concentrations of ipecac extract (0.01–50 μg mL^-1) in the presence and absence of 50 nM endogenous corticotropin-releasing factor (CRF) ligand. Concentration-dependent inhibition of receptor signaling was determined by measuring luciferase induction and accounting for the fluorescence of receptor-positive cells. The amount of luminescence of the control samples incubated with hormone alone was defined as 100% efficacy (Figure 1E). The inhibitory potency of the corresponding cyclotide-containing ipecac extract was measured and normalized relative to the efficacy of the control. […] The inhibitory potency of the ipecac extract to antagonize CRF1R signaling was determined as half-maximal concentration (IC50) as 2.0 μg mL^-1 (Figure 1F). […]
After confirming the presence of cyclotides in the ipecac extract, we aimed to isolate the cyclotides responsible for CRF1R antagonism using a bioassay-guided fraction approach. […] All fractions were analyzed by analytical HPLC and MALDI-TOF MS. […] Fractions C and D were determined to contain at least two cyclotides (Figures 4B,C and Supplementary Figure 1). […]

human V2R = assay: cAMP accumulation assay at vasopressin V2 receptor (LANCE Ultra cAMP); assay type: cell-based; settings: HEK293 transiently expressing human V2R, caripe 8 26 nM & 260 nM, 30 min, 23°C, five or more experiments in triplicate, not statistically different (One-way ANOVA)
Description: as §1, with “Stimulation of cAMP accumulation via the human CRF1R and the human V2R used 500 cells and 300 cells (expressing these receptors) per well, respectively, in 384-well white Cellstar® plates (Greiner Bio-One, Kremsmuenster, Austria). Cells were incubated with the respective cognate receptor agonist peptides, in the absence and presence of cyclotide, for 30 min at 23°C in a final volume of 10 μL of stimulation buffer. Termination of cAMP accumulation was performed with the addition of 5 μL of Eu-cAMP tracer solution and 5 μL of ULight-anti-cAMP antibody solution, each prepared in detection buffer, followed by incubation of the plate for 1 h at 23°C with the lid on.” left out
Data from cellular assays were analyzed using GraphPad Prism 7.01 (GraphPad Software, San Diego, CA, United States). […]

vasopressin V1a receptor = settings: ref Koehbach et al. (2013b); cited from earlier work
From the text: (§2) Cyclotides are plant-derived cyclic peptides that are currently of great interest as lead molecules and peptide scaffolds for pharmaceutical drug development ([Thell et al., 2016]; [Craik and Du, 2017]). They were first isolated from O. affinis (Rubiaceae), a plant used as herbal preparation (‘kalata-kalata’) in traditional Congolese medicine for its uterotonic properties ([Gran, 1970]; [Craik et al., 1999]; [Gran et al., 2000]). Evidence-based proof of the plant’s traditional use in childbirth and post-partum care was provided in 2013; [Koehbach et al. (2013b)] isolated the cyclotide kalata B ...

oxytocin receptor = settings: ref Koehbach et al. (2013b); cited from earlier work
From the text: as §2

Substance: GVIPCGESCVFIPCITAAI–GCSCKKKVCYRN (bicyclic or more) [caripe 8, natural bracelet cyclotide isolated from fraction F of ipecac root extract]
- fold reduction of CRF potency (human CRF1R [1]; 260 nM caripe 8, CRF concentration-response, HEK293 with human CRF1R, 30 min, 23°C, pH 7.4, six independent experiments in triplicate): approximately 4.5 fold
- effect on CRF maximal response (human CRF1R [1]; 260 nM caripe 8, CRF concentration-response, six experiments in triplicate): lack of effect
- difference of CRF LogEC50 in absence and presence of caripe 8 (human CRF1R [1]; 260 nM caripe 8, extra sum-of-squares F test, six experiments in triplicate): significantly different from each other (p < 0.05)
- inhibition of CRF1R-mediated cAMP response to CRF (human CRF1R [1]; 2.6, 26 and 260 nM cyclotide with an EC50 / approximate EC80 (Fig. 6A) of CRF, 30 min, 23°C, three experiments in triplicate): modest concentration-dependent inhibition
- effect on cAMP accumulation in combination with submaximal forskolin (human CRF1R [1]; HEK293, human CRF1R, submaximal agonist concentrations of forskolin): no effect
- intrinsic activity in the cAMP assay (human CRF1R [1]; HEK293 transiently expressing human CRF1R, cyclotide alone, 30 min, 23°C, pH 7.4): did not exhibit any intrinsic activity
- mode of antagonism at CRF1R (human CRF1R [1]; suggested from modest and limited antagonism): does not interact competitively with the CRF binding site
- limit of concentration-dependent inhibition of CRF-mediated cAMP response (data not shown) (human CRF1R [1]; titration with CRF, data not shown): observed to reach a threshold
- relative effectiveness as inhibitor of CRF1R-mediated luciferase activity (human CRF1R [2]): the most effective inhibitor
- effect on arginine-vasopressin-stimulated cAMP accumulation (human V2R; AVP 50 pM): not altered
- effect on forskolin-stimulated cAMP accumulation (human V2R; forskolin 300 nM): not altered

Substance: kalata B7
- affinity and potency at vasopressin V1a receptor (vasopressin V1a receptor): moderate affinity and potency (μM-concentration range)
- mode of action at vasopressin V1a receptor (vasopressin V1a receptor): partial agonist
- affinity and potency at oxytocin receptor (oxytocin receptor): moderate affinity and potency (μM-concentration range)
- mode of action at oxytocin receptor (oxytocin receptor): partial agonist
